# System: CRMM2 cells injected into the Duct of Cuvier of zebrafish embryos
# Assay: Zebrafish ectopic CM tumour model, CRMM2
# Type: in vivo, Zebrafish (Danio rerio)
# Details: for PI (Fluorescence Intensity) / PI (Tumour Area) / Relative Tumour Burden as Measured by Fluorescence Intensity / Tumour Area: CRMM2, Ectopic Model; for PI (Fluorescence Intensity) / PI (Tumour Area): 0 vs 114 J.cm^−2
# Experimental: The zebrafish ectopic conjunctival melanoma tumour model has been described previously. In this model, around 200 fluorescent CM cells are injected into the Duct of Cuvier at 2 dpf, and then disseminate through the blood circulation and grow in the head and tail. To establish the orthotopic tumour model, around 100 red, (td)Tomato fluorescent CRMM1 or CRMM2 cells were injected RO at 2 dpf into tg(Fli:GFP/Casper), endothelial reporter transgenic zebrafish with green fluorescent vasculature and examined by fluorescent microscopy at day 1 and 4 after engraftment (Figure 6A). Tumour expansion at the injection site was measured as fluorescence intensity and tumour area.
# For cancer cell injection, two days post-fertilization (dpf), dechorionated zebrafish embryos were anaesthetized with 0.003% tricaine (Sigma) and plated on a 10 cm Petri dish covered with 1.5% of solidified agarose. CRMM1 and CRMM2 cells were suspended in PBS containing 2% polyvinylpyrrolidone (PVP; Sigma-Aldrich) with a concentration of 50,000 cells/µL and loaded into borosilicate glass capillary needles (1 mm O.D. × 0.78 mm I.D.; Harvard Apparatus). In the ectopic model, 200 (td)Tomato fluorescent CM cells were injected into the Duct of Cuvier or at 2 dpf, which led to dissemination through the blood circulation and outgrowth in the head and tail. In orthotopic tumour model, 100 (td)Tomato fluorescent CRMM1 or CRMM2 cells were injected RO in 2 dpf embryos using a Pneumatic Picopump and a manipulator (WPI). After injection, the embryos were incubated in a 34 °C incubator. Images were acquired at 1-, 2- and 4-days post injection (dpi) with a Leica M165 FC stereo fluorescence microscope. Tumor growth was quantified by calculating the total fluorescence intensity and area with the ZF4 pixel counting program (Leiden). Each experiment was performed at least 3 times with a group size of >30 embryos.
# Fluorescent CRMM1 and CRMM2 cells were injected at 2 dpf into the Duct of Cuvier (ectopic model) and behind the eye (orthotopic model) and TLD1433 was delivered by WA, IV and RO administration with or without a light treatment as described in 4.8. For the WA administration, the 4.6 nM TLD1433 solution was added to the tumour cells injected zebrafish at 2.5, 3.5, 4.5, 5.5 dpf and maintained for 12 h. At 3, 4, 5, 6 dpf, the fish water was refreshed, and after 1 h, embryos were exposed to green light for 90 min (21 mW/cm^2, 114 J/cm^2, 520 nm). For the IV and RO administration, 1 nL of 2.3 mM TLD1433 solution was injected via the dorsal vein or the RO site at 3, 4, 5, 6 dpf. After 1 h interval, the embryos were exposed to green light for 90 min (21 mW/cm^2, 114 J/cm^2, 520 nm). After treatment, the embryos images were acquired with a Leica M165 FC stereo fluorescence microscope. Tumor growth was quantified by calculating the total fluorescence intensity and area with the ZF4 pixel counting program (Leiden). Each experiment was performed at least 3 times with a group size of >30 embryos.
# [1] = Intravenous (1 nL of 2.3 mM), Light Dose 0 J.cm^−2, vs control dark group (100%)
# [2] = Intravenous (1 nL of 2.3 mM), Light Dose 114 J.cm^−2, vs control dark group (100%)
# [3] = Water (4.6 nM), Light dose 0 J.cm^−2, vs control dark group (100%)
# [4] = Water (4.6 nM), Light dose 114 J.cm^−2, vs control dark group (100%)
# [5] = CRMM2, ectopic model, IV 2.3 mM, light 114 J.cm^−2
# [6] = CRMM2, ectopic model, RO 2.3 mM, green light 114 J.cm^−2
smiles,measurement,setting,value
Cc1ccnc(-c2cc(C)ccn2)c1.Cc1ccnc(-c2cc(C)ccn2)c1.[Cl-].[Cl-].[Ru+2].c1csc(-c2ccc(-c3ccc(-c4nc5c6cccnc6c6ncccc6c5[nH]4)s3)s2)c1 [TLD1433],PI (Fluorescence Intensity),Intravenous (1 nL of 2.3 mM),1.4
same,PI (Tumour Area),Intravenous (1 nL of 2.3 mM),2.0
same,Relative Tumour Burden as Measured by Fluorescence Intensity,[1],97%
same,Tumour Area,[1],99%
same,Relative Tumour Burden as Measured by Fluorescence Intensity,[2],69%
same,Tumour Area,[2],50%
same,PI (Tumour Area),Retro orbital (1 nL of 2.3 mM),2.0
same,Tumour Area,"Retro orbital (1 nL of 2.3 mM), Light dose 0 J.cm^−2, vs control dark group (100%)",94%
same,Tumour Area,"Retro orbital (1 nL of 2.3 mM), Light dose 114 J.cm^−2, vs control dark group (100%)",48%
same,PI (Fluorescence Intensity),Retro-orbital (1 nL of 2.3 mM),1.6
same,Relative Tumour Burden as Measured by Fluorescence Intensity,"Retro-orbital (1 nL of 2.3 mM), Light Dose 0 J.cm^−2, vs control dark group (100%)",93%
same,Relative Tumour Burden as Measured by Fluorescence Intensity,"Retro-orbital (1 nL of 2.3 mM), Light Dose 114 J.cm^−2, vs control dark group (100%)",60%
same,PI (Fluorescence Intensity),Water (4.6 nM),0.93
same,PI (Tumour Area),Water (4.6 nM),0.90
same,Relative Tumour Burden as Measured by Fluorescence Intensity,[3],90%
same,Tumour Area,[3],92%
same,Relative Tumour Burden as Measured by Fluorescence Intensity,[4],96%
same,Tumour Area,[4],102%
same,inhibition of tumour area,[5],50%
same,inhibition of tumour fluorescence intensity,[5],31%
same,diminished fluorescence intensity,[6],40%
same,diminished tumour area,[6],52%
same,effect on tumour burden (in words),"CRMM2, ectopic model, WA at the MTD (4.6 nM), light 114 J.cm^−2",did not inhibit tumour burden
